Literature values in Sander's compilation of Henry's law constants (doi:10.1080/01483918608076621).

experiment: Henry solubility constant Hcp at 298.15 K (mol/(m3 Pa)); details: reference: Janini and Quaddora (1986); cited value

| Henry solubility constant Hcp | Compound |
| --- | --- |
| 0.35 | CCCCCC(C)=O [2-heptanone] |
| 0.044 | CCCOC(C)=O [propyl ethanoate] |
| 0.054 | CCCC=O [butanal] |
| 5.2 | Cc1ccc(O)cc1 [1-hydroxy-4-methylbenzene] |
| 6.1 | Cc1cccc(O)c1 [1-hydroxy-3-methylbenzene] |
| 0.2 | CCC(=O)CC [3-pentanone] |
| 0.029 | CC(=O)OC(C)C [2-propyl ethanoate] |
| 0.091 | CCCC(C)=O [2-pentanone] |
| 0.047 | CCOC(C)=O [ethyl ethanoate] |

| Compound | Henry solubility constant Hcp |
| --- | --- |
| Cc1ccccc1O [1-hydroxy-2-methylbenzene] | 2.6 |
| CC(C)=O [propanone] | 0.03 |
| CCCCOC(C)=O [butyl ethanoate] | 0.035 |
